For orientation: boiling point means the temperature of boiling at a given pressure. For orientation: melting point means the temperature, or range, at which the solid turns liquid.

The record followed here is the OPERA property sets (Mansouri et al. 2018).

Settings in the first data set: not given
In the case of `FC(F)(F)C(F)(F)C(F)(F)C(F)(F)C(F)(F)C(F)(F)Br`, the boiling point was found to be 98 °C. Compound `Cn1nnc2ccccc21` showed a boiling point of 270 °C and a melting point of 64.5 °C.

`CC(=O)Nc1cccc([N+](=O)[O-])c1` came in with a log10 Koc (L/kg) of 1.94 and a melting point of 155 °C.

In turn, `CN1CCc2cc3c(cc2[C@H]1[C@@H]1OC(=O)c2c1ccc1c2OCO1)OCO3` had a melting point of 194 °C. In turn, `Cc1cc(Br)cc([N+](=O)[O-])c1` displayed a boiling point of 270 °C and a melting point of 83 °C. Regarding `CC1CCC(C)(C(=O)O)C1(C)C` (configuration not stated), the boiling point was determined as 254 °C and the melting point amounted to 106 °C.

In the case of `Clc1cccc(-c2c(Cl)cc(Cl)c(Cl)c2Cl)c1Cl`, the log10 Henry constant (atm·m³/mol) is -4.41. With `CC(C)(C)Cc1ccccc1`, the boiling point came out at 186 °C. In the case of `CCOC(=O)c1ccc(OCC)cc1`, the boiling point amounted to 275 °C. On to `O=C(c1ccccc1)C1CCC1`, for which the boiling point was 260 °C.

For the compound `OCc1ccc(Cl)c(Cl)c1`, the boiling point amounted to 150 °C and the melting point came out at 36 °C. For the compound `COc1c(N)cccc1[N+](=O)[O-]`, the ready biodegradability entry is given as “not readily biodegradable”. Turning to `CC(=O)Oc1cccc2cc3cccc(OC(C)=O)c3c(OC(C)=O)c12`, the ready biodegradability result was “not readily biodegradable”. Regarding `CNC(=O)ON=C(C)C(C)SC` (configuration not stated), the log10 vapour pressure (mmHg) is -4.1 and the melting point worked out at 25 °C. As to `CCC(CC)COC(=O)CCCCC(=O)OCC(CC)CC`, the melting point was -15 °C. `CCCCCCCCCCCCCCCCCCCCO` returned a boiling point of 372 °C, a log10 Koa of 12.1, a log10 vapour pressure (mmHg) of -7.34 and a melting point of 66.1 °C. With `Cc1ccc(C)c2occc12`, the boiling point is 216 °C. As for `CCCCOCCOCC(C)O` (configuration not stated), the boiling point is 230 °C.

`CCOCC(=O)Cl` displayed a boiling point of 125 °C. The compound `Cc1c[nH]c(C)c1` displayed a boiling point of 168 °C. Consider `Nc1c(Cl)cc(Cl)cc1Cl`, for which the boiling point was determined as 262 °C, the melting point was 78.5 °C and the ready biodegradability entry is reported as “not readily biodegradable”.

As for `O=P1(N(CCCl)CCCl)NCCCO1` (configuration not stated), the melting point is 51.5 °C and the ready biodegradability entry is listed as “not readily biodegradable”. Compound `CC(=O)S[C@H]1CC(=O)C=C2C[C@@H](SC(C)=O)[C@@H]3[C@H](CC[C@@]4(C)[C@H]3CC[C@]4(C)O)[C@]21C` yielded a melting point of 206 °C. Regarding `CCOP(=S)(Oc1ccc(Cl)cc1Cl)c1ccccc1` (configuration not stated), the ready biodegradability result is “not readily biodegradable”. As for `CCCC(Br)CC` (configuration not stated), the boiling point was determined as 142 °C.

Compound `Oc1ccc(Cl)cc1Sc1cc(Cl)ccc1O` gave a melting point of 174 °C. Compound `O=S(=O)(Oc1ccc(Cl)cc1Cl)c1ccccc1` came in with a melting point of 45.5 °C.

Turning to `COCBr`, the boiling point is 87 °C. `Cc1ccc2c(c1[N+](=O)[O-])C(=O)c1ccccc1C2=O` came in with a melting point of 270 °C.

`c1ccc2[nH]nnc2c1` gave a boiling point of 350 °C, a log10 Koc (L/kg) of 1.69 and a melting point of 100 °C. Regarding `C=CCC1CCCCC1`, the boiling point was 132 °C. In turn, `OCc1c(Cl)cccc1Cl` yielded a melting point of 98 °C. For the compound `ClC=C(Cl)CCl`, the boiling point was 142 °C and the log10 vapour pressure (mmHg) was 0.643. `COc1cc([C@@H]2c3cc4c(c(O)c3C[C@H]3COC(=O)[C@@H]32)OCO4)cc(OC)c1OC`: the melting point amounted to 234 °C. As to `CSc1nc(NC(C)C)nc(NC(C)C)n1`, the log10 Koc (L/kg) amounted to 2.85, the log10 vapour pressure (mmHg) is -5.91 and the melting point came to 119 °C. Take `CCC(C)(C)c1ccc(O)c(C(C)(C)CC)c1`: the melting point amounted to 25 °C and the ready biodegradability result was “not readily biodegradable”. `CCOC(=O)c1cccnc1` had a boiling point of 224 °C and a melting point of 8.5 °C. `C[C@]12CC[C@H]3[C@@H](CCC4=C(O)C(=O)CC[C@@H]43)[C@@H]1CC[C@@H]2O` returned a melting point of 189 °C. `ICCCI` displayed a melting point of -20 °C. On to `O=C(c1ccccc1)c1ccccc1`, for which the ready biodegradability entry is recorded as “not readily biodegradable”. Turning to `CCCCCCCCCCCCCCCC(=O)[O-].[Na+]`, the melting point was found to be 286 °C.

`BrCCCBr` showed a boiling point of 167 °C, a log10 Henry constant (atm·m³/mol) of -3.05, a log10 vapour pressure (mmHg) of 0.134 and a melting point of -34.2 °C. Also, the ready biodegradability entry was “not readily biodegradable”. In the case of `CCC(C(N)=O)c1ccccc1` (configuration not stated), the melting point is 86 °C. Regarding `COP(=S)(OC)Oc1ccc(SC)c(C)c1`, the log10 Koc (L/kg) was 3.18, the log10 vapour pressure (mmHg) was -4.98 and the melting point worked out at 7.5 °C. On to `Clc1ccccc1Oc1ccccc1`, for which the log10 vapour pressure (mmHg) was -2.4. `N#Cc1cc(I)c(O)c([N+](=O)[O-])c1` came in with a melting point of 138 °C. With `CCCCOC(=O)C(C)C`, the boiling point stood at 155 °C.

Take `CCCCCCCCOc1ccc(C(=O)c2ccccc2)c(O)c1`: the melting point was 48.5 °C and the ready biodegradability result is recorded as “not readily biodegradable”. `O=C1CCc2ccccc2C1` had a boiling point of 237 °C and a melting point of 18 °C. Compound `O=C(O)c1ccc(O)c(C(=O)O)c1` showed a melting point of 310 °C. Turning to `O=C(O)CCCCCCCCCCO`, the melting point came to 65.5 °C.

In turn, `FC(F)=C(F)Br` showed a boiling point of -1 °C and a log10 vapour pressure (mmHg) of 3.29. `COc1ccc2[nH]c3c(c2c1)CCNC3C` (configuration not stated) registered a melting point of 150 °C. On to `Cc1cc(O)c2ccccc2c1O`, for which the melting point was 169 °C. The same measure, in the same setting: the value for `O=C(O)c1ccccc1Nc1ccccc1` was 184 °C. `O=COCC=Cc1ccccc1`: the boiling point was 252 °C and the melting point was found to be 0 °C. The compound `Clc1cc(Cl)c2c(c1)oc1cc(Cl)cc(Cl)c12` returned a log10 vapour pressure (mmHg) of -7.73 and a melting point of 207 °C. Compound `c1ccc2c(c1)CCc1ccccc1-2` had a log10 vapour pressure (mmHg) of -3.22 and a melting point of 34.5 °C. `COc1cc(OC)nc(N=C(O)NS(=O)(=O)Nc2ccccc2C(=O)C2CC2)n1` came in with a melting point of 162 °C. The same measure, in the same setting: to `CC(CN1c2ccccc2Sc2ccccc21)[N+](C)(C)CCO.[Cl-]` (configuration not stated) belongs 233 °C; to `O=[N+]([O-])c1ccc2c(c1)Cc1ccccc1-2`, 157 °C.

`CNc1cccc2ccccc12` showed a boiling point of 294 °C and a melting point of 174 °C. Regarding `O=C(O)c1cccc([N+](=O)[O-])c1`, the melting point amounted to 141 °C and the ready biodegradability result is on record as “not readily biodegradable”. Compound `Nc1c(Cl)c(F)nc(OCC(=O)O)c1Cl` came in with a log10 vapour pressure (mmHg) of -10.5 and a melting point of 232 °C.

In turn, `CC(Cl)(Cl)C(Cl)Cl` had a boiling point of 153 °C.

In the case of `CCc1cc(C)nc(C)c1`, the boiling point is 188 °C and the melting point was 97 °C. On to `COc1ccccc1I`, for which the boiling point is 241 °C.

The compound `CCOc1ccc(N=Nc2ccc(OCC)cc2)cc1` showed a melting point of 162 °C.

For the compound `CCCCN(CCCC)C(=O)COC(=O)c1ccccc1`, the melting point was 25 °C.

Regarding `Cc1ccccc1-n1c(C)nc2ccccc2c1=O`, the melting point is 120 °C.

Still in this data set, the particulars now being: fish.
The compound `OCc1ccc(Cl)c(Cl)c1` yielded a log10 BCF of 0.54. With `Nc1c(Cl)cc(Cl)cc1Cl`, the log10 BCF came out at 2 and the log10 biotransformation half-life (days) is 0.67. As to `OCc1c(Cl)cccc1Cl`, the log10 BCF worked out at 0.47 and the log10 biotransformation half-life (days) is -1.37.

Compound `ClC1=C(Cl)C2(Cl)C3CC(Cl)(Cl)CC3C1(Cl)C2(Cl)Cl` (configuration not stated) registered a log10 BCF of 4.3 and a log10 biotransformation half-life (days) of 2.23. `O=C(c1ccccc1)c1ccccc1` returned a log10 BCF of 1.08. With `COP(=S)(OC)Oc1ccc(SC)c(C)c1`, the log10 BCF stood at 2.52 and the log10 biotransformation half-life (days) was -0.36.

As to `CCCCCCCCOc1ccc(C(=O)c2ccccc2)c(O)c1`, the log10 BCF turned out to be 1.9. On the same count and under the same terms, to `O=C(O)c1cccc([N+](=O)[O-])c1` belongs 0.85.
